Converted amounts (≈) assume the structure as drawn. “And” between values parts separate entries of the source, which are not always exact repeats. Equal values may be shown once. Read-outs that look alike come from different tables or passages of the source.
How the values were obtained:
[1] = tested on: SARS-CoV-2, isolate USA-WA1/2020; test: microbe, parasite or virus in culture; assay type: cell-based; settings: HeLa-ACE2 SARS-CoV-2 antiviral effect without P-gp inhibitor; for perc_max_measured: maximum measured response of dose series; for perc_min_measured: minimum measured response of dose series; for EC50: read-out: ec50; for EC90: read-out: ec90
HeLa-ACE2 cells = settings: for perc_max_measured: highest measured response of the dose series; for perc_min_measured: lowest measured response of the dose series
SARS-CoV-2 = test: Antiviral effect in iPSC-derived pneumocyte system; assay type: cell-based; settings: iPSC pneumocytes SARS-CoV-2 antiviral effect
in vitro = settings: human, hela-ace2 cells, 50.0
iPSC pneumocytes = iPSC pneumocytes cytotoxicity; assay type: cell-based; settings: protocol iPSC pneumocytes cytotoxicity
From the text: Supplement media-1.zip/Cytotoxicity.csv, table | column: cc10; cc50; perc_min_measured; perc_max_measured

[2] = Permeability Papp (AB) MDR1/MDCKII; settings: In vitro MDR1-MDCKII permeability; for papp_a_to_b_mean: A to B; for perc_recovery_a_to_b_mean: recovery A to B
[3] = In vitro kinetic solubility; settings: In vitro kinetic solubility, ph 7.4
[4] = Hepatic microsomal stability, HLM; assay type: in vitro ADME, human; settings: In vitro human liver microsomal stability; for perc_remaining_no_cofactor: no cofactor
[5] = Hepatic microsomal stability, MLM; assay type: in vitro ADME; settings: In vitro mouse liver microsomal stability; for perc_remaining_no_cofactor: no cofactor
LogD = settings: pH 7.4; In vitro LogD
[6] = protocol HeLa-ACE2 cytotoxicity

SMILES	perc_max_measured [1]	perc_min_measured [1]	EC50 [1]	EC90 [1]	CC50 at 24 h (in vitro)	papp_a_to_b_mean ([2]; no inhibitor)	perc_recovery_a_to_b_mean ([2]; no inhibitor)	CC50 (HeLa-ACE2 cells; HeLa-ACE2 cytotoxicity)	cc10 (HeLa-ACE2 cells; HeLa-ACE2 cytotoxicity)	perc_max_measured (HeLa-ACE2 cells; HeLa-ACE2 cytotoxicity)	solubility_mean [3]	clint [4]	perc_remaining [4]	t_half [4]	perc_remaining_no_cofactor [4]	clint [5]	perc_remaining [5]	t_half [5]	perc_remaining_no_cofactor [5]	logd (LogD)	further results
CC(C)[C@@H](Nc1ncnc2[nH]c(-c3cnn(C)n3)cc12)c1ccc2c(c1)OCCO2 [ASAP-0008469]	101.658% and 92.76%	24.481% and 27.109%	5.33 µM and 6.65 µM	> 20 µM	> 20 µM																CC50 (HeLa-ACE2 cells): > 20 µM; cc10 (HeLa-ACE2 cells): > 20.0 µM; perc_max_measured (HeLa-ACE2 cells; [6]): 104.412% and 106.04%; perc_min_measured (HeLa-ACE2 cells; [6]): 76.407% and 89.613%; EC50 (SARS-CoV-2): 13.3 µM; EC90 (SARS-CoV-2): 25.3 µM; perc_max_measured (SARS-CoV-2; maximum measured response of dose series): 157.709%; perc_min_measured (SARS-CoV-2; minimum measured response of dose series): 4.934%; perc_max_measured (iPSC pneumocytes; highest measured response of the dose series): 89.766%; perc_min_measured (iPSC pneumocytes; lowest measured response of the dose series): 75.657%
CC(C)[C@@H](Nc1ncnc2[nH]c(-c3ccc4nnn(C)c4c3)cc12)c1ccc2c(c1)S(=O)(=O)CCC2 [ASAP-0011201]	110.665%	33.895%	3.64 µM	> 20 µM	> 20 µM	0.827 ×10⁻⁶ cm/s	53.6%	> 20 µM	> 20.0 µM	106.149%	6 µM (≈ 3.01 µg/mL)	752.0 µL/min/mg	0.0%	2.2 min	93.0%	219.0 µL/min/mg	3.0%	7.6 min	93.0%	3.4	perc_min_measured (HeLa-ACE2 cells; HeLa-ACE2 cytotoxicity): 70.638%
CC(C)[C@@H](Nc1ncnc2[nH]cc(C(=O)NC3CC3)c12)c1ccc2c(c1)S(=O)(=O)CCC2 [ASAP-0011207]	103.36%	37.723%	14.4 µM	> 20 µM	> 20 µM			> 20 µM	> 20.0 µM	109.458%	216 µM (≈ 98 µg/mL)	409.0 µL/min/mg	0.0%	4.1 min	111.0%	1740.0 µL/min/mg	0.0%	1.0 min	102.0%	3.2	papp_a_to_b_mean ([2]; mean): 2.97 ×10⁻⁶ cm/s; perc_recovery_a_to_b_mean ([2]; mean): 85.8%; perc_min_measured (HeLa-ACE2 cells; HeLa-ACE2 cytotoxicity): 97.44%
CC(C)[C@@H](Nc1ncnc2[nH]c(-c3ccc4cncn4c3)cc12)c1ccc2c(c1)S(=O)(=O)CCC2 [ASAP-0011215]	92.609%	28.375%	7.12 µM	> 20 µM	> 20 µM	0.56 ×10⁻⁶ cm/s	70.8%	> 20 µM	> 20.0 µM	108.268%	14 µM (≈ 6.81 µg/mL)	210.0 µL/min/mg	4.0%	8.0 min	97.0%	170.0 µL/min/mg	6.0%	9.8 min	87.0%	4.0	perc_min_measured (HeLa-ACE2 cells; HeLa-ACE2 cytotoxicity): 81.968%
CC(C)[C@@H](Nc1ncnc2[nH]c(-c3cnn(CC(N)=O)c3)cc12)c1ccc2c(c1)S(=O)(=O)CCC2 [ASAP-0011432]	127.59%	107.301%	> 20 µM	> 20 µM	> 20 µM						335 µM (≈ 165 µg/mL)	115.0 µL/min/mg	15.0%	14.5 min	103.0%	96.0 µL/min/mg	20.0%	17.4 min	111.0%	2.0	papp_a_to_b_mean ([2]; mean): 0.719 ×10⁻⁶ cm/s; perc_recovery_a_to_b_mean ([2]; mean): 76.6%; CC50 (HeLa-ACE2 cells; [6]): > 20 µM; cc10 (HeLa-ACE2 cells; [6]): > 20.0 µM; perc_max_measured (HeLa-ACE2 cells; [6]): 97.628%; perc_min_measured (HeLa-ACE2 cells; [6]): 83.24%
CC(C)[C@@H](Nc1ncnc2[nH]ccc12)c1ccc2c(c1)S(=O)(=O)CCO2 [ASAP-0012318]	99.283%	83.757%	> 20 µM	> 20 µM	> 20 µM	4.4 ×10⁻⁶ cm/s	69.0%	> 20 µM	> 20.0 µM	106.826%	372 µM (≈ 139 µg/mL)	18.0 µL/min/mg	74.0%	91.3 min	92.0%	69.0 µL/min/mg	33.0%	24.2 min	111.0%	2.6	perc_min_measured (HeLa-ACE2 cells; HeLa-ACE2 cytotoxicity): 90.526%
CC(C)[C@@H](Nc1ncnc2[nH]c(-c3cncc(S(C)(=O)=O)c3)cc12)c1ccc2c(c1)S(=O)(=O)CCC2 [ASAP-0012320]	119.816%	96.629%	> 20 µM	> 20 µM	> 20 µM	0.491 ×10⁻⁶ cm/s	66.6%	> 20 µM	> 20.0 µM	98.548%	31 µM (≈ 16.3 µg/mL)	635.0 µL/min/mg	1.0%	2.6 min	104.0%	272.0 µL/min/mg	1.0%	6.1 min	112.0%	3.1	perc_min_measured (HeLa-ACE2 cells; HeLa-ACE2 cytotoxicity): 93.918%
CNC(=O)c1cccc(-c2cc3c(N[C@@H](c4ccc5c(c4)S(=O)(=O)CCC5)C(C)C)ncnc3[nH]2)c1 [ASAP-0012344]	108.746%	56.34%	> 20 µM	> 20 µM	> 20 µM	0.627 ×10⁻⁶ cm/s	67.1%				15 µM (≈ 7.55 µg/mL)	455.0 µL/min/mg	0.0%	3.7 min	93.0%	882.0 µL/min/mg	1.0%	1.9 min	101.0%	3.7	CC50 (HeLa-ACE2 cells; [6]): > 20 µM; cc10 (HeLa-ACE2 cells; [6]): > 20.0 µM; perc_max_measured (HeLa-ACE2 cells; [6]): 109.077%; perc_min_measured (HeLa-ACE2 cells; [6]): 84.376%
